# ChEMBL document CHEMBL1131556, “The discovery of orally available thrombin inhibitors: studies towards the optimisation of CGH1668” (Bioorg Med Chem Lett, 1998)
# Experiments:
# [1] = Activated partial thromboplastin time (APTT) was determined by the influence on doubling of a human clotting time assay; format: functional
# Prothrombin = Prothrombin (Homo sapiens, UniProt P00734); test: In vitro binding affinity for human thrombin.
SMILES,Activity [1],Ki (Prothrombin)
Nc1ccc(C[C@H](NS(=O)(=O)c2cnccc2N[C@H](CO)Cc2ccccc2)C(=O)N2CCC(CCF)CC2)cc1,2.5 µM,39 nM
Nc1ccc(C[C@H](NS(=O)(=O)c2cnccc2N[C@H](CO)CC2CCCCC2)C(=O)N2CCC(CCF)CC2)cc1,2.6 µM,18 nM
CN(C)C[C@H](Cc1ccccc1)Nc1ccncc1S(=O)(=O)N[C@@H](Cc1ccc(N)cc1)C(=O)N1CCC(CCF)CC1,3.4 µM,24 nM
Nc1ccc(C[C@H](NS(=O)(=O)c2cnccc2N[C@@H](Cc2ccccc2)CN2CCCCC2)C(=O)N2CCC(CCF)CC2)cc1,6.1 µM,25 nM
Nc1ccc(C[C@H](NS(=O)(=O)c2cnccc2N[C@@H](Cc2ccccc2)CN2CCOCC2)C(=O)N2CCC(CCF)CC2)cc1,2.9 µM,22 nM
CCNC[C@H](Cc1ccccc1)Nc1ccncc1S(=O)(=O)N[C@@H](Cc1ccc(N)cc1)C(=O)N1CCC(CCF)CC1,3.2 µM,99 nM
O=C([C@H](Cc1ccccc1)NS(=O)(=O)c1cnccc1N[C@H](CO)Cc1ccccc1)N1CCC(CCF)CC1,11.5 µM,100 nM
CC(=O)N1CCN(C[C@H](Cc2ccccc2)Nc2ccncc2S(=O)(=O)N[C@@H](Cc2ccc(N)cc2)C(=O)N2CCC(CCF)CC2)CC1,2.4 µM,24 nM
CNC[C@H](Cc1ccccc1)Nc1ccncc1S(=O)(=O)N[C@@H](Cc1ccc(N)cc1)C(=O)N1CCC(CCF)CC1,2.4 µM,35 nM
O=C([C@H](Cc1ccc(F)cc1)NS(=O)(=O)c1cnccc1N[C@H](CO)Cc1ccccc1)N1CCC(CCF)CC1,11.7 µM,65 nM
COc1ccc(C[C@@H](C)Nc2ccncc2S(=O)(=O)N[C@@H](Cc2ccc(N)cc2)C(=O)N2CCC(CCF)CC2)cc1,9 µM,15 nM
C[C@H](Cc1ccccc1)Nc1ccncc1S(=O)(=O)N[C@@H](Cc1ccc(N)cc1)C(=O)N1CCC(CCF)CC1,7.1 µM,18 nM
Nc1ccc(C[C@H](NS(=O)(=O)c2cnccc2N[C@@H](Cc2ccccc2)CN2CCC(O)CC2)C(=O)N2CCC(CCF)CC2)cc1,1.73 µM,19 nM
O=C([C@H](Cc1ccc(O)cc1)NS(=O)(=O)c1cnccc1N[C@H](CO)Cc1ccccc1)N1CCC(CCF)CC1,1.91 µM,41 nM
COc1ccc(C[C@@H](CO)Nc2ccncc2S(=O)(=O)N[C@@H](Cc2ccc(N)cc2)C(=O)N2CCC(CCF)CC2)cc1OC,2.5 µM,49 nM
Nc1ccc(C[C@H](NS(=O)(=O)c2cnccc2N[C@@H](Cc2ccccc2)CN2CCCC2)C(=O)N2CCC(CCF)CC2)cc1,3.4 µM,48 nM
Nc1ccc(C[C@H](NS(=O)(=O)c2cnccc2N[C@@H](Cc2ccccc2)CN2CCNC(=O)C2)C(=O)N2CCC(CCF)CC2)cc1,2.43 µM,90 nM
CCCNC[C@H](Cc1ccccc1)Nc1ccncc1S(=O)(=O)N[C@@H](Cc1ccc(N)cc1)C(=O)N1CCC(CCF)CC1,3.3 µM,47 nM
COCCN(CCOC)C[C@H](Cc1ccccc1)Nc1ccncc1S(=O)(=O)N[C@@H](Cc1ccc(N)cc1)C(=O)N1CCC(CCF)CC1,3.7 µM,19 nM
COc1ccc(C[C@@H](CO)Nc2ccncc2S(=O)(=O)N[C@@H](Cc2ccc(N)cc2)C(=O)N2CCC(CCF)CC2)cc1,2.9 µM,19 nM
CNC[C@H](CC1CCCCC1)Nc1ccncc1S(=O)(=O)N[C@@H](Cc1ccc(N)cc1)C(=O)N1CCC(CCF)CC1,2.8 µM,33 nM
CNc1ccc(C[C@H](NS(=O)(=O)c2cnccc2N[C@H](CO)Cc2ccccc2)C(=O)N2CCC(CCF)CC2)cc1,4.1 µM,12 nM
Nc1ccc(C[C@H](NS(=O)(=O)c2cnccc2N[C@H](CO)Cc2ccccc2)C(=O)N2CCC(CCCl)CC2)cc1,4.4 µM,27 nM
CCC1CCN(C(=O)[C@H](Cc2ccc(N)cc2)NS(=O)(=O)c2cnccc2N[C@H](CO)Cc2ccccc2)CC1,5.5 µM,110 nM
Nc1ccc(C[C@H](NS(=O)(=O)c2cnccc2N[C@H](COCCO)Cc2ccccc2)C(=O)N2CCC(CCF)CC2)cc1,2.5 µM,49 nM
Nc1ccc(C[C@H](NS(=O)(=O)c2cnccc2N[C@H](CO)Cc2ccccc2)C(=O)N2CCC(CCO)CC2)cc1,7.4 µM,634 nM
Nc1ccc(C[C@H](NS(=O)(=O)c2cnccc2N[C@H](CNCCO)Cc2ccccc2)C(=O)N2CCC(CCF)CC2)cc1,2 µM,72 nM
CCN(CC)C[C@H](Cc1ccccc1)Nc1ccncc1S(=O)(=O)N[C@@H](Cc1ccc(N)cc1)C(=O)N1CCC(CCF)CC1,3.56 µM,45 nM
CCCCNC[C@H](Cc1ccccc1)Nc1ccncc1S(=O)(=O)N[C@@H](Cc1ccc(N)cc1)C(=O)N1CCC(CCF)CC1,5.1 µM,43 nM
COc1ccc(C[C@H](NS(=O)(=O)c2cnccc2N[C@H](CO)Cc2ccccc2)C(=O)N2CCC(CCF)CC2)cc1,8.1 µM,36 nM
